Measurements taken from patent US20250177576A1, “COMPOUNDS FOR THE MEASUREMENT OF THE OXYGEN CONCENTRATION” (Center for Neuromusculoskeletal Restorative Medicine Limited, priority 2022, published 2025).

Tests used:
Type in all cases: physicochemical
[1] = Photoluminescence spectra in dichloromethane, oxygen-free vs ambient; settings: 10 μM in dichloromethane, excitation 500 nm
Description: (§1) Proton and carbon NMR spectra were measured in CDCl3 on a Bruker AVANCE III 400 MHz NMR Spectrometer and tetramethylsilane (TMS) was exploited as an internal standard for calibrating the chemical shift. Electrospray Ionization Quadrupole-Time-of-Flight (ESI-Q-TOF) mass spectrometry was performed on an Agilent 6540 Liquid chromatography—ESI-Q-TOF Mass Spectrometer. UV/Vis absorption spectroscopy was performed on a Molecular Devices SpectraMax M2e in different solutions at 293 K. Fluorescence emission spectra were taken from a LS-55 fluorescence spectrophotometer (PerkinElmer) at 293 K.

[2] = Oxygen quenching calibration (Stern-Volmer) in tetrahydrofuran; settings: 10 μM in tetrahydrofuran
Description: The photoluminescence spectra of the Pt(ttiq)(acac) (10 μM) in tetrahydrofuran in different oxygen concentrations upon 500 nm photoexcitation is presented in FIG. 2A. The phosphorescence peak intensity (698 nm) increases while the oxygen level of the solution decreases, whereas the fluorescence (528 nm) remains independent of the oxygen level. The oxygen quenching of the phosphorescence may be interpreted using Stern-Volmer relationship, in which (I0/I=1+KSV·[O2]) where I: phosphorescence intensity; I0: phosphorescence intensity at 0% of oxygen; KSV: quencher coefficient; [O2]: oxygen concentration. The data of FIG. 2A are fitted with this relationship in FIG. 2B and thus the I0 could be estimated from the equation of (y=133.75801/(1+0.0371−x); adjusted R^2=0.98066). Therefore, a linear correlation of I0/I against [O2](y=1.10962+0.03545 x; adjusted R^2=0.99036) could be established as in FIG. 2C. Mathematically, the Stern-Volmer relationship could be further derived to (R0/R=1+KSV·[O2]) whereas the fluorescence peak intensity is a constant, and thus the R0 could be estimated from the equation of (y=2.04177/(1+0.03267−x); adjusted R^2=0.97785) in FIG. 2D. Similarly, a linear correlation of R0/R against [O2](y=1.07595+0.03165−x; adjusted R^2=0.98135) could be established as in FIG. 2E. In short, the linear correlation between the ratiometric photoluminescence signal and oxygen concentration (%) obtained from FIG. 2E may be utilized to analyze the oxygen content of a tetrahydrofuran sample without the concerns of concentration dependency and absolute intensity value.
The oxygen concentration (%) or partial pressure of solution samples were varied by O2/N2 gas-purging with a syringe needle and natural ventilation (or gradually adding sodium sulfite (Na2SO3) solution as an oxygen consuming chemical reagent). The instantaneous oxygen concentration (%) of aqueous samples (or oxygen partial pressure values of tetrahydrofuran solutions) at 293 K were measured using pre-calibrated FireSting®-GO2 oxygen meter (PyroScience) coupled with a TDIP15 temperature probe (PyroScience) and a fiber optic sensor (OXR430-OI, or OXSOLV for organic solvent measurement) (PyroScience). The photoluminescence signals of the nano-sensor solution at different oxygen concentrations (%) (or partial pressures) were then measured by the fluorescence spectrophotometer and confocal laser scanning microscope. The calibration curves were established using the signal intensity at 528 nm and 698 nm from the PL spectra, and integrated signals' intensity from customized green channel (507-609 nm) and red channel (657-740 nm) from the CLSM images.

[3] = PL spectra in water/tetrahydrofuran binary mixtures (aggregation, AIE/ACQ)
Description: as §1
In view of the co-planar chemical structure of Pt(ttiq)(acac), it was interesting to look for any aggregation induced emission (AIE) or aggregation caused quenching (ACQ) property. […] When the water fraction further increased to or above 80%, the mixture formed clearly observable precipitates in the cuvette.
In order to observe whether these nanoaggregates were still readily quenched by oxygen, the PL spectra of the nanoaggregates' solution with a fwater of 60% was compared before and after the deaeration.

CC(=O)C=C(C)[O][Pt][c]1c(-c2nccc3ccccc23)sc2ccsc12 [Pt(ttiq)(acac)]
constant PL peak (fluorescence) wavelength ([1]; disregarding oxygen content): 528 nm
maximum phosphorescence intensity wavelength ([1]; oxygen-sensitive peak): 698 nm
quencher coefficient KSV from fit of PL intensity ratio (FIG. 2D) [2]: 0.03267
slope of linear correlation I0/I against [O2] (FIG. 2C) [2]: 0.03545
slope of linear correlation R0/R against [O2] (FIG. 2E calibration curve) [2]: 0.03165
fluorescence peak wavelength ([2]; excitation 500 nm): 528 nm
phosphorescence peak wavelength ([2]; excitation 500 nm): 698 nm
quencher coefficient KSV from fit of phosphorescence intensity (FIG. 2B) ([2]; vs oxygen partial pressure): 0.0371
oxygen response of nanoaggregates ([3]; fwater 60%, before and after deaeration): still very responsive to the oxygen content
aggregation induced emission property ([3]; water fraction 0 to 70% in tetrahydrofuran, 10 μM, ambient, excitation 500 nm): AIE-active species in the region of 650-750 nm
water fraction at which clearly observable precipitates form ([3]; water/tetrahydrofuran mixture, 10 μM): ≥ 80%
